Assay results reported in PubChem BioAssay (NCI).
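A five-concentration, 48-hour dose response in 96-well plates underlies each endpoint, interpolated linearly between surrounding concentrations. TGI: total growth inhibition.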

Legend:
Experiment in all cases: NCI tumour cell line growth inhibition, 48 h
ACHN renal = test system: ACHN renal
SNB-19 CNS = test system: SNB-19 CNS
MALME-3M melanoma = test system: MALME-3M melanoma
HCC-2998 colon = test system: HCC-2998 colon
EKVX NSCLC = test system: EKVX NSCLC
UO-31 renal = test system: UO-31 renal
COLO 205 colon = test system: COLO 205 colon
HT29 colon = test system: HT29 colon
NCI-H460 lung = test system: NCI-H460 lung
A549 NSCLC = test system: A549 NSCLC
NCI-H226 lung = test system: NCI-H226 lung
HOP-92 NSCLC = test system: HOP-92 NSCLC
SF-295 CNS = test system: SF-295 CNS
A498 renal = test system: A498 renal
LOX IMVI melanoma = test system: LOX IMVI melanoma
SK-MEL-28 melanoma = test system: SK-MEL-28 melanoma
HCT-15 colon = test system: HCT-15 colon
SF-539 CNS = test system: SF-539 CNS
M14 melanoma = test system: M14 melanoma
UACC-257 melanoma = test system: UACC-257 melanoma
U251 CNS = test system: U251 CNS
OVCAR-4 ovarian = test system: OVCAR-4 ovarian
RPMI-8226 leukemia = test system: RPMI-8226 leukemia
RXF 393 renal = test system: RXF 393 renal
SK-OV-3 ovarian = test system: SK-OV-3 ovarian
SK-MEL-5 melanoma = test system: SK-MEL-5 melanoma
KM12 colon = test system: KM12 colon
RXF-631 renal = test system: RXF-631 renal
HCT-116 colon = test system: HCT-116 colon
DLD-1 colon = test system: DLD-1 colon
NCI-H522 lung = test system: NCI-H522 lung
SNB-78 CNS = test system: SNB-78 CNS
SR leukemia = test system: SR leukemia
SW-620 colon = test system: SW-620 colon
LXFL 529 NSCLC = test system: LXFL 529 NSCLC
M19-MEL melanoma = test system: M19-MEL melanoma
SF-268 CNS = test system: SF-268 CNS
CAKI-1 renal = test system: CAKI-1 renal
SN12C renal = test system: SN12C renal
IGROV1 ovarian = test system: IGROV1 ovarian
SNB-75 CNS = test system: SNB-75 CNS
OVCAR-3 ovarian = test system: OVCAR-3 ovarian
OVCAR-8 ovarian = test system: OVCAR-8 ovarian
DMS 114 small cell lung = test system: DMS 114 small cell lung
OVCAR-5 ovarian = test system: OVCAR-5 ovarian
DMS 273 small cell lung = test system: DMS 273 small cell lung
HOP-62 NSCLC = test system: HOP-62 NSCLC
KM20L2 colon = test system: KM20L2 colon
HL-60(TB) leukemia = test system: HL-60(TB) leukemia
786-0 renal = test system: 786-0 renal
MOLT-4 leukemia = test system: MOLT-4 leukemia
UACC-62 melanoma = test system: UACC-62 melanoma
TK-10 renal = test system: TK-10 renal
CCRF-CEM leukemia = test system: CCRF-CEM leukemia
SK-MEL-2 melanoma = test system: SK-MEL-2 melanoma
NCI-H23 lung = test system: NCI-H23 lung
K-562 leukemia = test system: K-562 leukemia
XF 498 CNS = test system: XF 498 CNS

Measured: TGI

CC1=C2C(O)C(C(C)CO)C(O)CC2(C)C(O)CC1 (stereo unspecified)
not listed: SK-MEL-2 melanoma | NCI-H23 lung | K-562 leukemia | XF 498 CNS
> 100 µM: all other assays above

N#CCCc1nc2ccc(Br)cc2c(=O)n1CCO
not listed: ACHN renal | SNB-19 CNS | HT29 colon | NCI-H460 lung | A498 renal | U251 CNS | HCT-116 colon | SR leukemia | OVCAR-5 ovarian | DMS 273 small cell lung | KM20L2 colon
> 100 µM: all other assays above
